{"source": "the SangsterLogP compilation"}
{"experiment": "method code SF-HPLC, from DOI: 10.1021/jf960844v"}
{"smiles": "COC(=O)c1c(Oc2nc(OC)cc(OC)n2)cccc1C(C)=NOCC=C(Cl)Cl", "logP": 4.23}
{"smiles": "CO/N=C(\\C)c1cccc(Oc2nc(OC)cc(OC)n2)c1C(=O)OC", "logP": 2.57}
{"smiles": "CCCO/N=C(\\C)c1cccc(Oc2nc(OC)cc(OC)n2)c1C(=O)OC", "logP": 3.59}
{"smiles": "C=C(Br)CON=C(C)c1cccc(Oc2nc(OC)cc(OC)n2)c1C(=O)OC", "logP": 3.73}
{"smiles": "COC(=O)c1c(Oc2nc(OC)cc(OC)n2)cccc1C(C)=NO", "logP": 1.93}
{"smiles": "COC(=O)c1c(Oc2nc(OC)cc(OC)n2)cccc1C(C)=NOC(C)=O", "logP": 1.68}
{"smiles": "COC(=O)c1c(Oc2nc(OC)cc(OC)n2)cccc1C(C)=NOCc1ccccc1", "logP": 4.01}
{"smiles": "C=CCO/N=C(\\C)c1cccc(Oc2nc(OC)cc(OC)n2)c1C(=O)OC", "logP": 3.13}
{"smiles": "CCO/N=C(\\C)c1cccc(Oc2nc(OC)cc(OC)n2)c1C(=O)OC", "logP": 2.96}
{"smiles": "COC(=O)c1c(Oc2nc(OC)cc(OC)n2)cccc1C(C)=NOCC(F)(F)F", "logP": 3.39}
{"smiles": "COC(=O)c1c(Oc2nc(OC)cc(OC)n2)cccc1/C(C)=N/OCCCl", "logP": 3.23}
{"smiles": "C=C(Cl)CON=C(C)c1cccc(Oc2nc(OC)cc(OC)n2)c1C(=O)OC", "logP": 3.63}
{"smiles": "COC(=O)c1c(Oc2nc(OC)cc(OC)n2)cccc1C(C)=NOCCF", "logP": 2.31}
{"smiles": "CCCCON=C(C)c1cccc(Oc2nc(OC)cc(OC)n2)c1C(=O)OC", "logP": 4.11}
